According to patent publication US9771370B2, “Compounds for the inhibition of indoleamine-2,3-dioxygenase” (Merck Patent GmbH, priority 2014, dated 2017):

Biological target: Recombinant human IDO (Homo sapiens, UniProt P14902)
Test: Bridge-IT tryptophan fluorescence assay of human IDO-1 inhibition
Format: biochemical
Settings: recombinant human IDO 7.5 nM, L-tryptophan
Procedure, shortened: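 One variant ran L-Trp at 100 μM for 90 min at 37 °C. The other pre-incubated compound for 30 min at 25 °C, then ran 50 μM L-Trp for 60 min at 25 °C.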

Recombinant human IDO, sequence (P14902 whole entry): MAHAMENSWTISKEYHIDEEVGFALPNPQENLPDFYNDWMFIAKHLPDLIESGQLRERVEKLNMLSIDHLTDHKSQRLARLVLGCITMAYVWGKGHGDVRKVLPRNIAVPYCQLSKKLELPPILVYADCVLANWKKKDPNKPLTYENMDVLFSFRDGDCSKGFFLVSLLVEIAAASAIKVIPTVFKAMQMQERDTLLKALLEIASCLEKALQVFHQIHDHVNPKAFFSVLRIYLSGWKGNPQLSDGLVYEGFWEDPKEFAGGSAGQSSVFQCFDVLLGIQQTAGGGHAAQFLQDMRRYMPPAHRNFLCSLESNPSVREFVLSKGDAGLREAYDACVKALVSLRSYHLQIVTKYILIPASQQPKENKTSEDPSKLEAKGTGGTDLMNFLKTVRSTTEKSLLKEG

| Structure (SMILES) | IC50 [µM] |
| --- | --- |
| COc1cccc2c1-c1cncn1C2CCC1(F)CCCCC1 (single isomer, unassigned) [Compound 42a, 5-(2-(1-fluorocyclohexyl)ethyl)-9-methoxy-5H-imidazo[5,1-a]isoindole] | > 1 |
| OC(CC1c2nc(F)ccc2-c2cncn21)C1CCCCC1 (centres unmarked) [Compound 31a, 1-cyclohexyl-2-[10-fluoro-4,6,9-triazatricyclo[6.4.0.0^[2,6]]dodeca-1(8),2,4,9,11-pentaen-7-yl]ethan-1-ol] | 0.1 to 1 |
| COc1ccc2c(n1)C(CCC1(F)CCC3(CC1)CC3)n1cncc1-2 (single isomer, unassigned) [Compound 54a, 7-(2-{6-fluorospiro[2.5]octan-6-yl}ethyl)-10-methoxy-4,6,9-triazatricyclo[6.4.0.0^[2,6]]dodeca-1(8),2,4,9,11-pentaene] | < 0.1 |
| OC(CC1c2ncccc2-c2cncn21)C1CCC(F)(F)CC1 (single isomer, unassigned) [Compound 22d, 1-(4,4-difluorocyclohexyl)-2-[4,6,9-triazatricyclo[6.4.0.0^[2,6]]dodeca-1(8),2,4,9,11-pentaen-7-yl]ethan-1-ol] | > 1 |
| COc1cc2c(cn1)-c1cncn1C2CC(O)C1CCCCC1 (centres unmarked) [Compound 11b, 1-cyclohexyl-2-[10-methoxy-4,6,11-triazatricyclo[6.4.0.0^[2,6]]dodeca-1(8),2,4,9,11-pentaen-7-yl]ethan-1-ol] | > 1 |
| OC1CCC(F)(CCC2c3c(F)cccc3-c3cncn32)CC1 (single isomer, unassigned) [Compound 16a, 4-fluoro-4-(2-(6-fluoro-5H-imidazo[5,1-a]isoindol-5-yl)ethyl)cyclohexanol] | < 0.1 |
| OC(CC1CCCCC1)CC1c2ncccc2-c2cncn21 (single isomer, unassigned) [Compound 62a, 1-cyclohexyl-3-[4,6,9-triazatricyclo[6.4.0.0^[2,6]]dodeca-1(8),2,4,9,11-pentaen-7-yl]propan-2-ol] | 0.1 to 1 |
| FC1(CCC2c3ncccc3-c3cncn32)CCC2(CC1)CC2 (single isomer, unassigned) [Compound 30b, 7-(2-{6-fluorospiro[2.5]octan-6-yl}ethyl)-4,6,9-triazatricyclo[6.4.0.0^[2,6]]dodeca-1(8),2,4,9,11-pentaene] | > 1 |
| NC(=O)C1CCC(C(O)CC2c3ncccc3-c3cncn32)CC1 (single isomer, unassigned) [Compound 63c, 4-[1-hydroxy-2-[4,6,9-triazatricyclo[6.4.0.0^[2,6]]dodeca-1(8),2,4,9,11-pentaen-7-yl]ethyl]cyclohexane-1-carboxamide] | > 1 |
| CC1(C)CCC(F)(CCC2c3ncncc3-c3cncn32)CC1 (single isomer, unassigned) [Compound 66b, 7-[2-(1-fluoro-4,4-dimethylcyclohexyl)ethyl]-4,6,9,11-tetraazatricyclo[6.4.0.0^[2,6]]dodeca-1(8),2,4,9,11-pentaene] | > 1 |
| COc1ccc2c(n1)C(CC(O)C1CCCCC1)n1cncc1-2 (single isomer, unassigned) [Compound 39a, 1-Cyclohexyl-2-[10-methoxy-4,6,9-triazatricyclo[6.4.0.0^[2,6]]dodeca-1(8),2,4,9,11-pentaen-7-yl]ethan-1-ol] | < 0.1 |
| OC(CC1c2nc(C3CC3)ccc2-c2cncn21)C1CCCCC1 (single isomer, unassigned) [Compound 56b, 1-cyclohexyl-2-[10-cyclopropyl-4,6,9-triazatricyclo[6.4.0.0^[2,6]]dodeca-1(8),2,4,9,11-pentaen-7-yl]ethan-1-ol] | < 0.1 |
| OC(CC1c2nc(OC3CC3)ccc2-c2cncn21)C1CCC(F)(F)CC1 (single isomer, unassigned) [Compound 69d, 2-[10-cyclopropoxy-4,6,9-triazatricyclo[6.4.0.0^[2,6]]dodeca-1(8),2,4,9,11-pentaen-7-yl]-1-(4,4-difluorocyclohexyl)ethan-1-ol] | > 1 |
| Fc1ccc(F)c2c1-c1cncn1C2CCC1(F)CCCCC1 (single isomer, unassigned) [Compound 37b, 6,9-difluoro-5-(2-(1-fluorocyclohexyl)ethyl)-5H-imidazo[5,1-a]isoindole] | 0.1 to 1 |
| CC(C)(O)C1CCC(F)(CCC2c3ccccc3-c3cncn32)CC1 (single isomer, unassigned) [Compound 61d, 2-[4-fluoro-4-[2-[5H-imidazo[4,3-a]isoindol-5-yl]ethyl]cyclohexyl]propan-2-ol] | < 0.1 |

Other lines, results leading:

| IC50 [µM] | Structure (SMILES) |
| --- | --- |
| > 1 | CN(C)C(=O)C1CCC(F)(CCC2c3c(Cl)cccc3-c3cncn32)CC1 (single isomer, unassigned) [Compound 114d, 4-[2-[6-chloro-5H-imidazo[4,3-a]isoindol-5-yl]ethyl]-4-fluoro-N,N-dimethylcyclohexane-1-carboxamide] |
| 0.1 to 1 | OC1(C2CCC(F)(CCC3c4c(Cl)cccc4-c4cncn43)CC2)CC1 (centres unmarked) [Compound 106b, 1-[4-(2-[6-chloro-5H-imidazo[4,3-a]isoindol-5-yl]ethyl)-4-fluorocyclohexyl]cyclopropan-1-ol] |
| < 0.1 | NC(=O)CC1CCC(F)(CCC2c3ccccc3-c3cncn32)CC1 (single isomer, unassigned) [Compound 112b, 2-[4-fluoro-4-[2-[5H-imidazo[4,3-a]isoindol-5-yl]ethyl]cyclohexyl]acetamide] |
| > 1 | OC(CC1c2ncccc2-c2cncn21)C1(F)CCCCC1 (single isomer, unassigned) [Compound 109a, 1-(1-fluorocyclohexyl)-2-[4,6,9-triazatricyclo[6.4.0.0^[2,6]]dodeca-1(8),2,4,9,11-pentaen-7-yl]ethan-1-ol] |
| > 1 | OC(CC1c2ncccc2-c2cncn21)C1CCC(C2(O)CC2)CC1 (single isomer, unassigned) [Compound 117a, 1-[4-[1-hydroxy-2-[4,6,9-triazatricyclo[6.4.0.0^[2,6]]dodeca-1(8),2,4,9,11-pentaen-7-yl]ethyl]cyclohexyl]cyclopropan-1-ol] |
| > 1 | CC(C)[C@H](N)C(=O)N1CCC(F)(CCC2c3ccccc3-c3cncn32)CC1 (single isomer, unassigned) [Compound 89a] |
| > 1 | O=C(C1CCC(F)(CCC2c3ncccc3-c3cncn32)CC1)N1CCCCC1 (mixture of isomers) [Compound 100b, 7-[2-[1-Fluoro-4-[(piperidin-1-yl)carbonyl]cyclohexyl]ethyl]-4,6,9-triazatricyclo[6.4.0.0^[2,6]]dodeca-1(8),2,4,9,11-pentaene] |
| < 0.1 | O=C(C1CCC(F)(CCC2c3c(Cl)cccc3-c3cncn32)CC1)N1CCCCC1 (single isomer, unassigned) [Compound 115b] |
| > 1 | NC(=O)CC1CCC(F)(CCC2c3c(F)cccc3-c3cncn32)CC1 (single isomer, unassigned) [Compound 116a, 2-[4-Fluoro-4-[2-[6-fluoro-5H-imidazo[4,3-a]isoindol-5-yl]ethyl]cyclohexyl]acetamide] |
| > 1 | NC(=O)C1CCC(F)(CCC2c3c(F)cccc3-c3cncn32)CC1 (single isomer, unassigned) [Compound 81b, 4-fluoro-4-[2-[6-fluoro-5H-imidazo[4,3-a]isoindol-5-yl]ethyl]cyclohexane-1-carboxamide] |
| > 1 | FC(CC1c2ncccc2-c2cncn21)C1CCCCC1 (single isomer, unassigned) [Compound 97d, 7-[2-cyclohexyl-2-fluoroethyl]-4,6,9-triazatricyclo[6.4.0.0^[2,6]]dodeca-1(8),2,4,9,11-pentaene] |
| > 1 | FC1(CCC2c3nc(C(F)(F)F)ccc3-c3cncn32)CCCCC1 (single isomer, unassigned) [Compound 76a, 7-[2-(1-fluorocyclohexyl)ethyl]-10-(trifluoromethyl)-4,6,9-triazatricyclo[6.4.0.0^[2,6]]dodeca-1(8),2,4,9,11-pentaene] |
| < 0.1 | NC(=O)CC1CCC(F)(CCC2c3c(F)cccc3-c3cncn32)CC1 (single isomer, unassigned) [Compound 116d, 2-[4-Fluoro-4-[2-[6-fluoro-5H-imidazo[4,3-a]isoindol-5-yl]ethyl]cyclohexyl]acetamide] |
| > 1 | COc1ccc2c(n1)C(CC(N)C1CCC(C)(C)CC1)n1cncc1-2 (single isomer, unassigned) [Compound 119a, 1-(4,4-dimethylcyclohexyl)-2-[10-methoxy-4,6,9-triazatricyclo[6.4.0.0^[2,6]]dodeca-1(8),2,4,9,11-pentaen-7-yl]ethan-1-amine] |
